In brackets after ≈: the same amount, converted by molar mass. Several values for one entry are separate records, joined by “and”; a condition that tells them apart may be missing. Identical values can stand only once.
Key:
[1] = target: T1, PBP3 of P. aeruginosa (PaPBP3) (Pseudomonas aeruginosa, UniProt G3XD46); assay: FP-Bocillin FL competition assay; format: binding; conditions: 30 min preincubation before Bocillin FL, 37 °C; read-out: IC50 Determination with PaPBP3, FP-Bocillin FL Assay
T1 construct: P. aeruginosa PBP3 (amino acids 40 to 563); His-tag; made in house; host or cells: E. coli BL21 (DE3) Rosetta, plasmid pET41_PBP-3
T1 sequence (G3XD46 40-563): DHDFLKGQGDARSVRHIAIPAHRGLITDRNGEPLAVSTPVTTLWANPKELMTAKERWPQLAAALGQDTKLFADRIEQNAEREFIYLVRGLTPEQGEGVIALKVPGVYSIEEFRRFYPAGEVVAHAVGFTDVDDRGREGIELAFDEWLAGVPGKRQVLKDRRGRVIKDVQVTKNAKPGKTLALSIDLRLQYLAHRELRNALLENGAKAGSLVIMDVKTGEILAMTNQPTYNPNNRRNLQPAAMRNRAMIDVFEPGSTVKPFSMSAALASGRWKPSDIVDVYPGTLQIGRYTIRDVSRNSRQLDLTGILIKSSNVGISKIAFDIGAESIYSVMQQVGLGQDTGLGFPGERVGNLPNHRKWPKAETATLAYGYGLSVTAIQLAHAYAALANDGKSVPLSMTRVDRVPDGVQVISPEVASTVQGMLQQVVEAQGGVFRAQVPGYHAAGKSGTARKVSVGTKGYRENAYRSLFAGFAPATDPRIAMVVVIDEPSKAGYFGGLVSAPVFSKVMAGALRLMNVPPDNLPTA
Protocol: Bocillin FL is a fluorescent penicillin V derivate used as a competitor for PBP inhibitors.
Fluorescence polarisation (FP) experiments were carried out as described before. To determine the binding of Bocillin FL to PBP, 200 nM of ^PaPBP3 was incubated for 30 min with 100 nM of Bocillin FL (Thermo Fisher Scientific, Waltham, MA, USA). The fluorescence polarisation signal of free Bocillin FL was monitored in a Pherastar microplate reader (BMG Labtech, Ortenberg, Germany) in the polarisation mode with Ex/Em: 485/520 nm excitation and emission filters. Millipolarisation (mP) units were calculated using the MARS data analysis software v30.40.R2 (BMG Labtech, Ortenberg, Germany). All the experiments were done in Sorensen buffer at 37 °C using flat-bottom, black 96-well plates. […] Bocillin FL was diluted in Sorensen buffer and added to the reaction and directly measured for 30 min at 37 °C. The FP was continuously measured in the presence and absence of compound and enzyme. […] The estimated IC50 values were established by sigmoidal nonlinear regression, using Prims v.8 software.

[2] = test system: T-lymphoblast CCRF-CEM cell line; assay: Cytotoxicity assay (PrestoBlue), CCRF-CEM; conditions: for Cytotoxicity CCRF-CEM: CC50, 72 h; for cytotoxic potential at the tested cell lines: four cell lines: NRK-52E, Hep G2, CCRF-CEM, H9
Protocol: We finally tested the cytotoxicity of the compounds against four eukaryotic cell lines (Table 2 and Table S5), NRK-52E, an epithelial kidney cell line of Rattus norvegicus; Hep G2, an human epithelial liver cell line; and two suspension cell lines: CCRF-CEM, a T lymphoblast; and H9, a cutaneous T lymphocyte cell line.
Cell lines stored at −120 °C were thawed to 37 °C and resuspended in 10 mL of medium pre-warmed to 37 °C. Cells were pelleted at 300× g for 10 min, and then resuspended in fresh medium, seeded in a T-75 culture flask, and placed in a CO2 incubator (37 °C with 5% CO2 tension). Once the cells reached approximately 70–80% confluency, they were then passaged regularly. The adherent cell lines NRK52E, HepG2 and Huh 7 were washed once with 10 mL DPBS and detached with Trypsin-EDTA for 5 to 7 min and resuspended in 15 mL of the appropriate medium. The suspension cell line CCRF-CEM were diluted and resuspended in fresh RPMI 1640 PAN medium. To calculate the cell density, the cell resuspensions were diluted 1:6 with DPBS. Equal volumes of cell suspension and Trypan Blue were mixed and gently loaded into a haemocytometer (INCYTO, 31056 Republic of Korea). In each experiment, cell concentrations were adjusted to reach a concentration of 2.5 × 10^3 cell/well for NRK52E, 5 × 10^3 cell/well for HepG2, 6.2 × 10^4 cell/well for CCRF-CEM and 3 × 10^3 for H9. The cells were incubated with decreasing concentration of compounds (1 µL in 96% DMSO) for 72 h at 37 °C with 5% CO2 tension. Cycloheximide, a cytotoxic compound that interferes with the translocation step in eukaryotic protein synthesis was used as a control for the experiments. The assay was carried out in flat-bottom, transparent 96-well plates. Cell viability was determined using the PrestoBlue reagent (Thermo Fisher Scientific, Waltham, MA, USA) according to the manufacture’s protocol. First, 10× PrestoBlue was added to each well to obtain a 1× solution, and incubated at 37 °C for 45 min. Then, fluorescence was measured at Ex/Em: 550/595 nm using a ClarioStar microplate reader (BMG Labtech). Cytotoxicity was determined as the percentage of the difference in absorbance of the untreated sample to the treated sample. CC50 was calculated using the values obtained in each concentration using the sigmoidal dose-response by Prism v.8. The media used in each cell line is detailed in Table S6.

[3] = test system: P. aeruginosa PAO1 (wild-type strain); assay: MIC broth microdilution, P. aeruginosa PAO1; format: cell-based, Pseudomonas aeruginosa; conditions: wild-type strain, with 4 µg/mL PMBN
From the text: (§1) The results presented above implied that seven pyrrolidine-2,3-dione derivatives inhibited the activity of ^PaPBP3 in vitro. Consequently, we were very interested in investigating the potential of these compounds to affect the growth of P. aeruginosa. Two P. aeruginosa bacterial strains (the wild-type PAO1 and the isogenic ΔmexB ΔmexX ΔmexCD-oprJ efflux pump mutant) were used to determine the MIC and the potential role of the main P. aeruginosa efflux systems in compound uptake. To increase the antibacterial sensitivity of the tested P. aeruginosa isolates to the potential inhibitors, we performed MIC experiments in the presence and absence of a sub-MIC concentration (4 µg/mL) of the outer membrane permeabilising polymyxin B nonapeptide (PMBN). […] Thus, we concluded that the physicochemical properties of the pyrrolidine-2,3-dione compounds were perhaps not yet favourable enough to cross the P. aeruginosa cell envelope without a permeabiliser because of their high hydrophobicity.
(§2) The wild-type P.aeruginosa PAO1 and the isogenic P. aeruginosa K2896 ΔmexBΔmexXYΔmexCD-oprJ isolates were used to determine the MIC in the presence and absence of PMBN [48].
(§3) MIC determination was performed via standard broth microdilution according to the Clinical & Laboratory Standards institute guidelines. Overnight colonies grown on BD-Columbia agar with 5% Sheep Blood (Becton Dickinson, Franklin Lakes, NJ, USA), were diluted in Mueller Hinton Broth 2 cation adjusted (MH+) medium (Thermo Fisher Scientific) to a concentration of 5 × 10^5 CFU/mL. Serial dilutions (1:2) of test compounds were incubated at 37 °C with 5 × 10^4 bacteria in a final volume of 100 μL. Sterile and growth controls in the presence of 1% DMSO and PMBN if the case, and the positive controls, aztreonam (AZT) and tigecycline (TIG) were included in the experiments (Table S4). The MICs were determined visually after 18 h at 37 °C and confirmed by the addition of 10% PrestoBlue (ThermoFisher Scientific) reagent according to the manufacture’s protocol. The fluorescence signal of PrestoBlue reagent was measured at Ex/Em: 550/595 nm after 30 min incubation at 37 °C using at a ClarioStar microplate reader (BMG Labtech). PrestoBlue reduction occurs in the presence of living cells and consequently turns red in colour and is highly fluorescent.

[4] = test system: P. aeruginosa K2896 ΔmexBΔmexXYΔmexCD-oprJ; assay: MIC broth microdilution, P. aeruginosa K2896 efflux mutant; format: cell-based, Pseudomonas aeruginosa; conditions: ΔmexB; ΔmexX, ΔmexCD-oprJ, with 4 µg/mL PMBN
From the text: as §1, §2, §3

O=C(C1=C(O)C(=O)N(Cc2cc3ccccc3[nH]2)C1c1ccc(Cl)cc1)c1ccc(Br)cc1 (centres unmarked) [Compound 34, 4-(4-bromobenzoyl)-5-(4-chlorophenyl)-3-hydroxy-1-(1H-indol-2-ylmethyl)-5H-pyrrol-2-one]
IC50 [1]: 4 ± 4 µM | Cytotoxicity CCRF-CEM [2]: >100 µM

O=C(C1=C(O)C(=O)N(CCc2c[nH]c3ccccc23)C1c1ccc(Cl)cc1)c1ccc(Br)cc1 (centres unmarked) [Compound 40]
IC50 [1]: 4 ± 2 µM | Cytotoxicity CCRF-CEM [2]: 93 ± 4 µM

O=C(C1=C(O)C(=O)N(Cc2nc3ccccc3[nH]2)C1c1ccc(Cl)cc1)c1ccc(Br)cc1 (centres unmarked) [Compound 38]
IC50 [1]: 117 ± 4 µM | MIC (µM) against P. aeruginosa PAO1 [3]: >100 µM | MIC (µM) against P. aeruginosa K28926 [4]: >100 µM | Cytotoxicity CCRF-CEM [2]: >100 µM

O=C(C1=C(N2CCOCC2)C(=O)N(Cc2cccc(F)c2)C1c1ccc(Cl)cc1)c1ccc(Br)cc1 (centres unmarked) [Compound 44, 4-(4-bromobenzoyl)-5-(4-chlorophenyl)-1-[(3-fluorophenyl)methyl]-3-(morpholin-4-yl)-5H-pyrrol-2-one]
IC50 [1]: > 100 µM | MIC (µM) against P. aeruginosa PAO1 [3]: >100 µM | MIC (µM) against P. aeruginosa K28926 [4]: >100 µM | Cytotoxicity CCRF-CEM [2]: > 100 µM

O=C(C1=C(O)C(=O)N(Cc2ccco2)C1c1ccc(Cl)cc1)c1ccc(Br)cc1 (centres unmarked) [Compound 41, 4-(4-bromobenzoyl)-5-(4-chlorophenyl)-1-(furan-2-ylmethyl)-3-hydroxy-5H-pyrrol-2-one]
IC50 [1]: > 100 µM | MIC (µM) against P. aeruginosa K28926 [4]: 25 µM (≈ 11.8 µg/mL) | Cytotoxicity CCRF-CEM [2]: >100 µM

O=C(C1=C(O)C(=O)N(Cc2cscn2)C1c1ccc(Cl)cc1)c1ccc(Br)cc1 (centres unmarked) [Compound 42]
IC50 [1]: > 100 µM | MIC (µM) against P. aeruginosa PAO1 [3]: >100 µM | MIC (µM) against P. aeruginosa K28926 [4]: >100 µM | Cytotoxicity CCRF-CEM [2]: >100 µM

O=C(C1=C(O)C(=O)N(CCc2cc3ccccc3[nH]2)C1c1ccc(Cl)cc1)c1ccc(Br)cc1 (centres unmarked) [Compound 37]
IC50 [1]: 17 ± 3 µM | Cytotoxicity CCRF-CEM [2]: 8 ± 6 µM | cytotoxic potential at the tested cell lines [2]: high cytotoxic potential

O=C(C1=C(O)C(=O)N(Cc2cc3cnccc3[nH]2)C1c1ccc(Cl)cc1)c1ccc(Br)cc1 (centres unmarked) [Compound 36]
IC50 [1]: > 100 µM | MIC (µM) against P. aeruginosa PAO1 [3]: >100 µM | MIC (µM) against P. aeruginosa K28926 [4]: 100 µM (≈ 52.3 µg/mL) | cytotoxic potential at the tested cell lines [2]: high cytotoxic potential

CCNC1=C(C(=O)c2ccc(Br)cc2)C(c2ccc(Cl)cc2)N(Cc2c[nH]c3ccccc23)C1=O (centres unmarked) [Compound 45]
IC50 [1]: > 100 µM | MIC (µM) against P. aeruginosa PAO1 [3]: >100 µM | MIC (µM) against P. aeruginosa K28926 [4]: >100 µM | cytotoxic potential at the tested cell lines [2]: high cytotoxic potential

O=C(C1=C(O)C(=O)N(Cc2cc3cc(Cl)ccc3[nH]2)C1c1ccc(Cl)cc1)c1ccc(Br)cc1 (centres unmarked) [Compound 35]
IC50 [1]: 2 µM and 0.6 µM | Cytotoxicity CCRF-CEM [2]: > 100 µM

CCN1C(=O)C(O)=C(C(=O)c2ccc(Br)cc2)C1c1ccc(Cl)cc1 (centres unmarked) [Compound 33]
IC50 [1]: > 100 µM | MIC (µM) against P. aeruginosa PAO1 [3]: >100 µM | MIC (µM) against P. aeruginosa K28926 [4]: >100 µM | Cytotoxicity CCRF-CEM [2]: 58 ± 6 µM

CCNC1=C(C(=O)c2ccc(Br)cc2)C(c2ccc(Cl)cc2)N(Cc2cccc(F)c2)C1=O (centres unmarked) [Compound 43, 4-(4-bromobenzoyl)-5-(4-chlorophenyl)-3-(ethylamino)-1-[(3-fluorophenyl)methyl]-5H-pyrrol-2-one]
IC50 [1]: > 100 µM | MIC (µM) against P. aeruginosa PAO1 [3]: >100 µM | MIC (µM) against P. aeruginosa K28926 [4]: >100 µM | Cytotoxicity CCRF-CEM [2]: > 100 µM

O=C1NC(c2ccc(Cl)cc2)C(C(=O)c2ccc(Br)cc2)=C1O (centres unmarked) [Compound 32, 4-(4-bromobenzoyl)-5-(4-chlorophenyl)-3-hydroxy-1,5-dihydropyrrol-2-one]
IC50 [1]: > 100 µM | MIC (µM) against P. aeruginosa PAO1 [3]: >100 µM | MIC (µM) against P. aeruginosa K28926 [4]: >100 µM | Cytotoxicity CCRF-CEM [2]: 94 ± 6 µM

O=C(C1=C(O)C(=O)N(Cc2cccc(F)c2)C1c1ccc(Cl)cc1)c1ccc(Br)cc1 (centres unmarked) [Compound 1]
IC50 [1]: 7 ± 3 µM | MIC (µM) against P. aeruginosa K28926 [4]: 12.5 µM (≈ 6.26 µg/mL) | Cytotoxicity CCRF-CEM [2]: >100 µM

Source: paper PMC8147781, “Discovery of Pyrrolidine-2,3-diones as Novel Inhibitors of P. aeruginosa PBP3” (Antibiotics, 2021)
